Values of other authors as cited in US20230149510A1, “METHOD FOR ALLEVIATING ARTHRITIS USING EPIDERMAL GROWTH FACTOR” (Lovin BioMed Co., Ltd., priority 2021, published 2023).

Tests used:
[1] = test system: collagen-induced arthritis; settings: Swanson C. D. et al. (2012); cited from earlier work
OA = settings: Sun H. et al. (2018); cited from earlier work

Row | SMILES | effect on collagen-induced arthritis [1] | effect on symptoms in mice with OA (OA)
1 | C#Cc1cccc(Nc2ncnc3cc(OCCOC)c(OCCOC)cc23)c1 [erlotinib] | can alleviate collagen-induced arthritis | 
2 | COc1cc2ncnc(Nc3ccc(F)c(Cl)c3)c2cc1OCCCN1CCOCC1 [gefitinib] |  | can improve symptoms in mice with OA
